Experimental data: patent US20020032228A1 (priority 2000, published 2002)
“Also recorded” adds a separate entry of the source. Read-outs that look alike come from different tables or passages of the source.

What was measured:
Xenopus laevis epidermis = assay type: cell-based
Adenylate Cyclase = Adenylate Cyclase (Bordetella pertussis, UniProt P0DKX7); test: biochemical; assay type: biochemical
[1] = tested on: mouse intestinal loops challenged with cholera toxin; assay type: in vivo
CHO cells = assay type: cell-based, Chinese hamster
physchem = conditions: pH 5.5
[2] = 168 h, pH 5.5
[3] = tested on: mouse intestinal loops challenged with cholera toxin; assay type: in vivo; conditions: 6 hour
[4] = enzyme 4.6 nmoles, imidazole 2.7 mmoles, PGE2-Histidine adduct 52 μmoles, celecoxib 0.52 mmoles

Chain of Adenylate Cyclase (P0DKX7 whole entry, looked up): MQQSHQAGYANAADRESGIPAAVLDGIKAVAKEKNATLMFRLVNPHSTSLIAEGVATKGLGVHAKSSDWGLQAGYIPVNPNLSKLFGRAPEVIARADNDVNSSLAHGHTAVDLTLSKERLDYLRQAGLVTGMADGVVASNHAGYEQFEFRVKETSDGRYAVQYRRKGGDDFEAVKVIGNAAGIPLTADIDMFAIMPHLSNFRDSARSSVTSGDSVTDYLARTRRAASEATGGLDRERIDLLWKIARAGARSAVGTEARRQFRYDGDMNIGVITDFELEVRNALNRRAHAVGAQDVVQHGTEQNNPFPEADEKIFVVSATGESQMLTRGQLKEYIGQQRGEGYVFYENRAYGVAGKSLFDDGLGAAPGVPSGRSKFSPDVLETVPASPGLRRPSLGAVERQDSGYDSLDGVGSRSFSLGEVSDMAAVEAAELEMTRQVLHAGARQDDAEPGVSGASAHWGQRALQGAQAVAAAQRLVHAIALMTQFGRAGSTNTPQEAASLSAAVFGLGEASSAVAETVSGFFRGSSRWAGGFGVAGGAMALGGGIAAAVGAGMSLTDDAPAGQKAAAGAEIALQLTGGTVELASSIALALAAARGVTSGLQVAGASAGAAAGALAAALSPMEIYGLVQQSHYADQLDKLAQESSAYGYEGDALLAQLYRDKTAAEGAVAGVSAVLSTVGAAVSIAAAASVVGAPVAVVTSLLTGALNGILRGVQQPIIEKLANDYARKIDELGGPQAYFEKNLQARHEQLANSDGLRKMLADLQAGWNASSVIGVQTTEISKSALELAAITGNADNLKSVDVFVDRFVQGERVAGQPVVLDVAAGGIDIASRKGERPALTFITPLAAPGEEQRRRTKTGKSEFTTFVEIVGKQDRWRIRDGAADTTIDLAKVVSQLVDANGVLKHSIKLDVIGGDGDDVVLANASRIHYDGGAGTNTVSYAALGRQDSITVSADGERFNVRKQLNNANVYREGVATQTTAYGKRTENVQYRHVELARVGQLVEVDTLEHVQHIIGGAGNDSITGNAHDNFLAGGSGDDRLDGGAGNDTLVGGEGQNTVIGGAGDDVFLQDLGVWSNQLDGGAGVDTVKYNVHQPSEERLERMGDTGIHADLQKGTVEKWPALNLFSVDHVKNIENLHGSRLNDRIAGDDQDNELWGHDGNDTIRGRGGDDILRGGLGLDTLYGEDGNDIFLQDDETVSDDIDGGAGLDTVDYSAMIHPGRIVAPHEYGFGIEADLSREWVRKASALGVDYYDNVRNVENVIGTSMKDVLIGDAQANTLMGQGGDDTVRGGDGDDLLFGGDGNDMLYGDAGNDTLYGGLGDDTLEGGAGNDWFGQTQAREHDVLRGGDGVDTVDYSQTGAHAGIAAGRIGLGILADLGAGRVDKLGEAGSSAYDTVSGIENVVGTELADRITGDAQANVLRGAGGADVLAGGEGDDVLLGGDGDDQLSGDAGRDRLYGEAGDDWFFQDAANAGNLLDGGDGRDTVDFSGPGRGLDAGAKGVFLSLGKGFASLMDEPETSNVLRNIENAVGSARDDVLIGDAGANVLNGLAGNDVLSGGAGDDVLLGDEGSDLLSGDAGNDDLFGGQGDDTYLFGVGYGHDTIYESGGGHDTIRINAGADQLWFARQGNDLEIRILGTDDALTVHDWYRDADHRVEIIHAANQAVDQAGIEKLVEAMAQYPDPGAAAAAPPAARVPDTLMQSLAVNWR

For `CCCCCC(O)/C=C/[C@H]1C(O)CC(=O)[C@H]1C/C=C\CCCC(=O)O` (some centres unmarked) [PGE2, reference compound], the “increase of steady-state Na+-dependent short circuit current (ISC)” value (Xenopus laevis epidermis) was 14% and the “maximum PGE2-induced change in ISC” value (Xenopus laevis epidermis; n=5) was 18±3%.
In the case of `Cc1ccc(-c2cc(C(F)(F)F)nn2-c2ccc(S(N)(=O)=O)cc2)cc1` [celecoxib, reference compound], the IC50 (Adenylate Cyclase) is reported as 20 µM, the “inhibition of adenylate cyclase enzyme activity (FIG. 12)” value (“inhibition … (FIG. 12)” below) (Adenylate Cyclase; [4]) is reported as “inhibit adenylate cyclase enzyme activity” and the “CT-induced fluid accumulation in murine intestinal loops” value ([1]; 6 hours) is reported as “significantly reduced”.
With `CCCCC[C@H](O)/C=C/C1=C(C/C=C\CCCC(=O)O)C(=O)CC1` [PGB2, reference compound] the “CT-induced fluid accumulation in murine intestinal loops” value ([1]; mouse, in vivo) was “reduce CT-induced fluid accumulation in murine intestinal loops with lower potency”.
For `COc1ccc(-n2nc(C(F)(F)F)cc2-c2ccc(Cl)cc2)cc1` [SC560, reference compound], the “cholera toxin-induced fluid secretion” value ([1]; mouse, in vivo, sc) was “inhibits cholera toxin-induced fluid secretion”.
With `N[C@@H](Cc1c[nH]cn1)C(=O)O` [L-histidine] the “PGE2- and CT-stimulated cAMP formation in CHO cells” value (CHO cells) was “reduced the capacity of both PGE2 and CT to stimulate cAMP formation”, the “Difference in ISC between PGE2 and PGE2+L-histidine” value (Xenopus laevis epidermis) was 78±21% and the “ISC, % of control” value (Xenopus laevis epidermis) was 30±9 % of control. For the same compound, the “basal and PGE2-induced sodium transport” value (Xenopus laevis epidermis) was “reduced both basal and PGE2-induced sodium transport”, the “fluid accumulation in mouse intestinal loops challenged with cholera toxin” value ([1]; 6 hours) was “as the dose of L-histidine was increased, the amount of fluid accumulation decreased; also recorded: accumulated significantly less fluid” and the “reduction of fluid accumulation, statistical significance” value ([1]; 6 hours) was “statistical significance (P<0.05)”.
In the case of `CS(=O)(=O)c1ccc(C2=C(c3ccccc3)C(=O)OC2)cc1` [rofecoxib, reference compound], the “inhibition … (FIG. 12)” value (Adenylate Cyclase; [4]) is reported as “absence of adenylate cyclase inhibition” and the cholera toxin-induced secretion ([1]; mouse, in vivo) is reported as “does not inhibit cholera toxin-induced secretion”.
With “prostaglandin E2-histidine [PGE2-histidine]” the “inhibition … (FIG. 12)” value (Adenylate Cyclase) was “inhibit adenylate cyclase enzyme activity”, the IC50 (Adenylate Cyclase; read-out: IC50 dose inhibiting 50% of the enzyme activity) was 21.5 µM and the “inhibition of the CT fluid response” value ([1]; mouse, in vivo) was “virtually complete inhibition”.
With `CC(=O)N[C@@H](CS)C(=O)O` [NAC, N-acetyl-L-cysteine, reference compound] the intestinal fluid accumulation ([1]; mouse, in vivo) was “blocked all intestinal fluid accumulation” and the “protection against CT-induced fluid secretion in small intestinal loops” value ([1]; mouse, in vivo, ip, pH 7) was “no protective effect”.
For `CCCCCC(O)/C=C/[C@H]1C(n2ccnc2)CC(=O)[C@H]1C/C=C\CCCC(=O)O` (some centres unmarked) [PGE2-imidazole, 11-deoxy-11-imidazolyl-PGE2], the half-life (physchem) was ~60 h, the “inhibition of CT-induced cAMP formation” value (CHO cells) was “significant inhibition; also recorded: reduces cAMP levels” and the “reduction of cAMP levels” value (CHO cells; 0.5 μg/ml) was “approximately 50%”. For the same compound, the adduct remaining [2] was 10%, the “cAMP levels in the intestinal loop fluids” value [3] was “markedly reduced” and the CT-induced fluid accumulation ([1]; 6 hour) was “significantly reduced”. The “fluid loss following CT challenge” value ([1]; mouse, in vivo) was “completely blocked” and the “inhibition of the CT fluid response” value ([1]; mouse, in vivo) was “virtually complete inhibition”.
With `CCCCC[C@H](O)/C=C/[C@H]1C=CC(=O)[C@@H]1C/C=C\CCCC(=O)O` [PGA2, reference compound] the “CT-induced fluid accumulation in murine intestinal loops” value ([1]; mouse, in vivo) was “reduce CT-induced fluid accumulation in murine intestinal loops with lower potency”.
With `c1c[nH]cn1` [imidazole] the IC50 (Adenylate Cyclase) was 1570 µM, the “inhibition … (FIG. 12)” value (Adenylate Cyclase; [4]) was “inhibit adenylate cyclase enzyme activity” and the “Ratio Enzyme:Drug, molar concentration required to inhibit Adenylate Cyclase” value (Adenylate Cyclase; enzyme 0.46 nm) was 0.46 nm:1.57 mm.
